{"source": "patent US20180202936A1", "about": "“Modified Hydrocyanine Dyes for the Detection of Reactive Oxygen Species” (Life Technologies Corporation, priority 2010, published 2018)", "format_in_all_cases": "cell-based", "key": {"RAW macrophages": {"test_system": "RAW macrophages", "experiment": "Specificity of ROS signal: NADPH oxidase inhibitor in LPS-treated RAW cells (Example 8)", "conditions": "500 ng/mL LPS; Far Red ROS Sensor readout", "experimental": "(§1) BPAE cells or RAW macrophages were plated in 96-well plates. BPAE cells were treated with or without 100 μM Menadione for 1 h. 100 μM of superoxide scavenger, MnTBAP was added to some of the control and menadione-treated wells for the last 30 min of incubation. RAW cells were treated with or without 500 ng/mL of Lipopolysachharide (LPS) with or without Diphenylenelodinium (DPI), an NADPH oxidase inhibitor."}, "Live Jurkat cells": {"test_system": "Live Jurkat cells", "experiment": "Flow cytometry of ROS formation in live Jurkat cells (Example 4)", "conditions": "100 μM Menadione or 500 nM PMA, 1 hr; 5 μM Far Red ROS Sensor 30 min; 635 nm excitation, emission 650-670 nm", "experimental": "Live Jurkat cells were treated with or without either 100 μM Menadione or 500 nM phorbol myristate acetate (PMA) for 1 hr. The cells were stained with 5 μM Far Red ROS Sensor and Hoechst 33342 for 30 mins. The cells were washed 3 times with PBS and then analyzed at approximately 400 events per second on a BD® LSR II flow cytometer (Beckton Dickinson, Franklin Lakes, N.J.) with 635 nm laser excitation and fluorescence emission collected from 650-670 nm."}, "BPAE cells": {"test_system": "BPAE cells", "experiment": "Specificity of ROS signal: superoxide scavenger in menadione-treated BPAE cells (Example 8)", "conditions": "100 μM MnTBAP, last 30 min; 100 μM Menadione 1 h; Far Red ROS Sensor readout", "experimental": "as §1"}, "HepG2 cells": {"test_system": "HepG2 cells", "experiment": "Multiplexed measurement of oxidative stress, cytotoxicity and apoptosis in HepG2 cells (Example 10)", "conditions": "50 μM Nefazodone 24 h", "experimental": "For the last 30 min of Nefazodone treatment, the cells were either stained with 5 μM Far Red ROS Sensor and 20 nM Image-IT® DEAD Green™ viability stain (Life Technologies Corp., Carlsbad, Calif.), FIG. 10a) or 5 μM Far Red ROS Sensor and 5 μM fluorogenic CaspaGreen caspase substrate (FIG. 10b). […] Image-iT® DEAD Green™ measures plasma membrane permeability, a marker for cytotoxicity."}}}
{"compound": "c1ccc2c(c1)[I+]c1ccccc1-2", "note": "[DPI, Diphenylenelodinium]", "values": [{"measurement": "effect on ROS caused by LPS", "setting": "RAW macrophages", "result": "inhibited ROS"}]}
{"compound": "CC1=CC(=O)c2ccccc2C1=O", "note": "[Menadione]", "values": [{"measurement": "ROS formation after treatment", "setting": "Live Jurkat cells", "result": "increase in ROS formation"}]}
{"compound": "O=C(O)c1ccc(/C2=C3\\C=CC(=N3)/C(c3ccc(C(=O)O)cc3)=c3/cc/c4[n]3[Mn]([Cl])[n]3c2ccc3/C(c2ccc(C(=O)O)cc2)=C2/C=CC(=N2)\\C=4c2ccc(C(=O)O)cc2)cc1", "note": "[MnTBAP]", "values": [{"measurement": "effect on ROS caused by Menadione", "setting": "BPAE cells", "result": "inhibited ROS"}]}
{"compound": "CCc1nn(CCCN2CCN(c3cccc(Cl)c3)CC2)c(=O)n1CCOc1ccccc1", "note": "[Nefazodone]", "values": [{"measurement": "apoptosis (fluorogenic CaspaGreen caspase substrate)", "setting": "HepG2 cells; 5 μM CaspaGreen caspase substrate", "result": "increased nuclear staining"}, {"measurement": "oxidative stress (Far Red ROS Sensor)", "setting": "HepG2 cells; 5 μM Far Red ROS Sensor", "result": "causes oxidative stress"}]}
{"compound": "CCCCCCCCCCCCCC(=O)O[C@@H]1[C@@H](C)[C@@]2(O)[C@@H](C=C(CO)C[C@]3(O)C(=O)C(C)=C[C@@H]23)[C@@H]2C(C)(C)[C@]12OC(C)=O", "note": "[PMA, phorbol myristate acetate]", "values": [{"measurement": "ROS formation after treatment", "setting": "Live Jurkat cells", "result": "increase in ROS formation"}]}
